From the supplement of paper PMC8149375

What was measured:
Settings in all cases: treatment: drug alone; 5 days
[1] = tested on: 769-P; assay: minimum viability across doses, drug alone, relative to DMSO (fraction); higher = less growth inhibition
Protocol: (§1)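 Primary HTS: 8 RCC cell lines treated with 8 doses (up to 10 uM) of each library drug alone for 5 days; viability read by CellTiter-Glo and normalised to DMSO. GI50 was fitted with XLfit (4-parameter), AUC is the area under the dose-response curve, and minimum viability is the lowest fraction of DMSO viability across doses.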

[2] = tested on: A498; assay: as above
Protocol: as §1

[3] = tested on: ACHN; assay: as above
Protocol: as §1

[4] = tested on: UO-31; assay: as above
Protocol: as §1

[5] = tested on: TK-10; assay: as above
Protocol: as §1

[6] = tested on: 786-O; assay: as above
Protocol: as §1

[7] = tested on: SN12C; assay: as above
Protocol: as §1

[8] = tested on: CAKI-1; assay: as above
Protocol: as §1

[9] = tested on: 769-P; assay: GI50, drug alone; higher = less potent
Protocol: as §1

[10] = tested on: A498; assay: GI50, drug alone; higher = less potent
Protocol: as §1

[11] = tested on: ACHN; assay: GI50, drug alone; higher = less potent
Protocol: as §1

[12] = tested on: UO-31; assay: GI50, drug alone; higher = less potent
Protocol: as §1

[13] = tested on: TK-10; assay: GI50, drug alone; higher = less potent
Protocol: as §1

[14] = tested on: 786-O; assay: GI50, drug alone; higher = less potent
Protocol: as §1

[15] = tested on: SN12C; assay: GI50, drug alone; higher = less potent
Protocol: as §1

[16] = tested on: CAKI-1; assay: GI50, drug alone; higher = less potent
Protocol: as §1

[17] = tested on: 769-P; assay: AUC of dose-response viability curve, drug alone (arbitrary (AUC of normalised viability)); higher = less growth inhibition
Protocol: as §1

[18] = tested on: A498; assay: as above
Protocol: as §1

[19] = tested on: ACHN; assay: as above
Protocol: as §1

[20] = tested on: UO-31; assay: as above
Protocol: as §1

[21] = tested on: TK-10; assay: as above
Protocol: as §1

[22] = tested on: 786-O; assay: as above
Protocol: as §1

[23] = tested on: SN12C; assay: as above
Protocol: as §1

[24] = tested on: CAKI-1; assay: as above
Protocol: as §1

Row | GI50, drug alone [11] | GI50, drug alone [14] | Compound | minimum viability across doses [1] | minimum viability across doses [2] | minimum viability across doses [3] | minimum viability across doses [4] | minimum viability across doses [5] | minimum viability across doses [6] | minimum viability across doses [7] | minimum viability across doses [8] | GI50, drug alone [9] | GI50, drug alone [10] | GI50, drug alone [12] | GI50, drug alone [13] | GI50, drug alone [15] | GI50, drug alone [16] | AUC of dose-response viability curve [17] | AUC of dose-response viability curve [18] | AUC of dose-response viability curve [19] | AUC of dose-response viability curve [20] | AUC of dose-response viability curve [21] | AUC of dose-response viability curve [22] | AUC of dose-response viability curve [23] | AUC of dose-response viability curve [24]
1 | 0.946 µM | 0.375 µM | O=C(NC1CCNCC1)c1n[nH]cc1NC(=O)c1c(Cl)cccc1Cl [AT7519] | 0.0237 | 0.00986 | 0.00881 | 0.00638 | 0.182 | 0.00447 | 0.0108 | 0.0613 | 1.91 µM | 0.455 µM | 0.415 µM | 1.04 µM | 0.431 µM | 0.9 µM | 2.78 | 2.45 | 2.35 | 3.04 | 2.32 | 2.23 | 2.14 | 2.23
2 | 2.57 µM | 1.11 µM | Clc1ccc(C2(c3ccc(-c4cn[nH]c4)cc3)CCNCC2)cc1 [AT7867] | 0.338 | 0.263 | 0.0705 | 0.00617 | 0.0799 | 0.00712 | 0.212 | 0.155 | 6.56 µM | 7.63 µM | 0.249 µM | 3.73 µM | 5.46 µM | 4.09 µM | 3.02 | 3.49 | 2.89 | 2.21 | 2.84 | 2.05 | 3.13 | 2.8
3 | 0.344 µM | 0.1 µM | O=C(Nc1c[nH]nc1-c1nc2cc(CN3CCOCC3)ccc2[nH]1)NC1CC1 [AT9283] | 0.0255 | 0.0125 | 0.0159 | 0.00945 | 0.0596 | 0.00681 | 0.00789 | 0.0418 | 0.241 µM | 0.777 µM | 0.25 µM | 0.456 µM | 1.1 µM | 0.414 µM | 1.97 | 2.74 | 1.86 | 2.05 | 2.1 | 1.58 | 2.63 | 2.22
4 | 2.71 µM | > 10 µM | Cc1ccc(NC(=O)c2cccc(C(C)(C)C#N)c2)cc1Nc1ccc2ncn(C)c(=O)c2c1 [AZ628] | 0.706 | 0.928 | 0.276 | 0.101 | 0.425 | 0.719 | 0.572 | 0.239 | > 10 µM | > 10 µM | 4.5 µM | 4.67 µM | > 10 µM | 4.38 µM | 3.42 | 3.97 | 2.84 | 3.37 | 2.48 | 3.21 | 3.3 | 3.16
5 | 1.07 µM | 0.259 µM | Cc1cc(Nc2nc(N[C@@H](C)c3ccc(F)cc3)c(C#N)cc2F)n[nH]1 [AZ 960] | 0.0819 | 0.391 | 0.129 | 0.00541 | 0.133 | 0.00178 | 0.252 | 0.0231 | 1.23 µM | 3.3 µM | 0.789 µM | 1.84 µM | 1.68 µM | 0.628 µM | 2.51 | 2.86 | 2.48 | 2.52 | 2.44 | 1.57 | 2.5 | 2.15
6 | 0.12 µM | 0.0236 µM | CNC(=O)c1cccc(-c2ccc3c(N4CCOC[C@@H]4C)nc(N4CCOC[C@@H]4C)nc3n2)c1 [AZD2014] | 0.0959 | 0.229 | 0.0767 | 0.0166 | 0.108 | 0.0673 | 0.177 | 0.0604 | 0.573 µM | 0.936 µM | 0.135 µM | 0.145 µM | 0.364 µM | 0.246 µM | 2.29 | 2.91 | 1.61 | 1.88 | 1.67 | 1.18 | 2.12 | 1.86
7 | 2.38 µM | 7.22 µM | COc1cc(CCc2cc(NC(=O)c3ccc(N4C[C@@H](C)N[C@@H](C)C4)cc3)n[nH]2)cc(OC)c1 [AZD4547] | 0.9 | 0.877 | 0.165 | 0.68 | 0.51 | 0.202 | 0.256 | 0.222 | > 10 µM | > 10 µM | 9.97 µM | 9.57 µM | 5.18 µM | 1.6 µM | 3.57 | 3.96 | 2.69 | 5.09 | 3.11 | 3.17 | 3.1 | 2.59
8 | 0.654 µM | 0.186 µM | Cc1ncc(-c2ccnc(Nc3ccc(S(C)(=O)=O)cc3)n2)n1C(C)C [AZD5438] | 0.0207 | 0.00858 | 0.0146 | 0.00721 | 0.142 | 0.00317 | 0.0183 | 0.131 | 0.91 µM | 1.23 µM | 0.258 µM | 0.759 µM | 1.48 µM | 1.64 µM | 2.6 | 2.44 | 2.39 | 2.19 | 2.49 | 1.66 | 2.45 | 2.97

Row | Compound | GI50, drug alone [11] | GI50, drug alone [14] | minimum viability across doses [1] | minimum viability across doses [2] | minimum viability across doses [3] | minimum viability across doses [4] | minimum viability across doses [5] | minimum viability across doses [6] | minimum viability across doses [7] | minimum viability across doses [8] | GI50, drug alone [9] | GI50, drug alone [10] | GI50, drug alone [12] | GI50, drug alone [13] | GI50, drug alone [15] | GI50, drug alone [16] | AUC of dose-response viability curve [17] | AUC of dose-response viability curve [18] | AUC of dose-response viability curve [19] | AUC of dose-response viability curve [20] | AUC of dose-response viability curve [21] | AUC of dose-response viability curve [22] | AUC of dose-response viability curve [23] | AUC of dose-response viability curve [24]
9 | Cc1cc2c(C(C)C)c(O)c(O)c(C=O)c2c(O)c1-c1c(C)cc2c(C(C)C)c(O)c(O)c(C=O)c2c1O [AT101] | 5.95 µM | > 10 µM | 0.779 | 0.836 | 0.2 | 0.778 | 0.542 | 0.212 | 0.741 | 0.121 | > 10 µM | > 10 µM | > 10 µM | > 10 µM | > 10 µM | 6.05 µM | 3.66 | 3.74 | 3.02 | 3.8 | 2.36 | 1.66 | 3.2 | 3.35
